Source: patent US20250257069A1, “JAK INHIBITOR ANALOGS, FORMULATIONS, AND USES THEREOF” (THE REGENTS OF THE UNIVERSITY OF MICHIGAN, priority 2022, published 2025)
Where two headings read alike, the source gives them in different places.

Columns and labels:
HEL 92.1.7 cells = assay: Anti-proliferative assay in HEL cells (CellTiter 96 Aqueous); assay type: cell-based, Human; settings: 3 days
Procedure: (§1) Cell Culture and anti-proliferative assay. […] Cells were incubated at 37° C. in a humidified atmosphere of 5% CO2. Cells were seeded into 96-well culture plates at the density of approximately 8000 cells per well and treated with various concentrations of compounds for 3 days in final volumes of 200 μL. Upon end point, cells were treated using CellTiter 96 Aqueous Assay Reagents (Promega Corporation, Madison, USA) according to the provider's instruction. Briefly, MITS and PMS solution were thawed and mixed (20:1, v/v) before use and pipet appropriate amount of the mixed solution into each well of the 96 well assay plates. The plates were incubated for 1-4 hours at 37° C. in a humidified atmosphere of 5% CO2. The absorbance at 490 nm was recorded using CYTATION 5 imaging reader (BioTek, VT, USA). IC50 values were calculated using percentage of growth versus untreated control.

[1] = following a single oral dose; cited from earlier work
SET-2 cells = assay: Anti-proliferative assay in SET-2 cells (CellTiter 96 Aqueous); assay type: cell-based, Human; settings: 3 days
Procedure: as §1

TYK2 = TYK2 (Homo sapiens (Human), UniProt P29597); assay: Kinase-Glo Max TYK2 kinase assay (BPS Bioscience kit); assay type: biochemical; settings: purified enzyme, 0.01-10,000 nM
Chain of TYK2 (P29597 whole entry): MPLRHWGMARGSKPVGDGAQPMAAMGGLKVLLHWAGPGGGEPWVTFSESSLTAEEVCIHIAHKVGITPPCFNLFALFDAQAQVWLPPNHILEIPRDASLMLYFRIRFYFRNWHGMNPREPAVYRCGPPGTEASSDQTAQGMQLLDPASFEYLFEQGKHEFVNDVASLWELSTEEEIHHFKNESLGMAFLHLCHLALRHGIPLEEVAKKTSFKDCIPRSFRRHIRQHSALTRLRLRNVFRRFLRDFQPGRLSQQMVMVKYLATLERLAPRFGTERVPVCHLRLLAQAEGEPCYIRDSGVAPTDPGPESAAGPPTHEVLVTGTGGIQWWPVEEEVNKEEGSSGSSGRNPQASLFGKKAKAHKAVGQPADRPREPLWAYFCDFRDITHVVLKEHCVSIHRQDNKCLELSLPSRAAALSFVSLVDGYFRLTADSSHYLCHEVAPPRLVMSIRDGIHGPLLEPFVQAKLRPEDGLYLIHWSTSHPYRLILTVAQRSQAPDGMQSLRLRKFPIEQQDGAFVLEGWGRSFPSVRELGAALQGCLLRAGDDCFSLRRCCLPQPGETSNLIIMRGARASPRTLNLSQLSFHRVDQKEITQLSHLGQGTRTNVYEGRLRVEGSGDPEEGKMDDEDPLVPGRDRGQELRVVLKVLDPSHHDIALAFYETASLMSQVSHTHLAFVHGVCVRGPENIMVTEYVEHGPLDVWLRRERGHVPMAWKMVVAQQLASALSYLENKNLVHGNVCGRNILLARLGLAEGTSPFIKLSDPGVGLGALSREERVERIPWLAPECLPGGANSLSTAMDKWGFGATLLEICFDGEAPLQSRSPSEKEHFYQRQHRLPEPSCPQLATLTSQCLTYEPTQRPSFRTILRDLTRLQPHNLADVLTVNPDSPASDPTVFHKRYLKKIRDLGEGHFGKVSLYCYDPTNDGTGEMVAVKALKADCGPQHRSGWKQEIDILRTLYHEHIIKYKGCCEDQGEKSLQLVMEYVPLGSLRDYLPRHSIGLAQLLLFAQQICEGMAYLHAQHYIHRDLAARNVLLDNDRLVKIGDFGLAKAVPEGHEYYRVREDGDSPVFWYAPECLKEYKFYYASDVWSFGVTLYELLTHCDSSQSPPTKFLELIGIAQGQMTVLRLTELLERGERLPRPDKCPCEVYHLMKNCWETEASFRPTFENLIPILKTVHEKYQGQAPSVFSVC
Procedure: (§2) In vitro activity to inhibit JAK enzymes: JAK1, JAK2, JAK3, TYK2 assay kits were obtained from BPS Bioscience (San Diego, CA, USA). The assays were conducted according to manufacturer's protocols in 96-well microplates. Briefly, master mixtures (25 μL per well) were prepared for JAK1 and TYK2 assays (6 μL 5× kinase assay buffer+1 μL ATP (500 μM)+5 μL×10 IRS1-tide+13 μL distilled water) or for JAK2 and JAK3 assays (6 μl 5× kinase assay buffer+1 μl ATP (500 μM)+1 μl PTK substrate Poly(Glu:Tyr 4:1) (10 mg/mL)+17 μL distilled water), respectively. […] The reaction mixtures were incubated at 30° C. for 40 minutes. Finally, 50 μL of Kinase-Glo Max reagent (Promega, Madison, WL USA) was added to each well and the reactions were performed in darkness for 15 minutes at room temperature. The luminescence of the reaction mixture was read on a Synergy 2 microplate reader (Biotek).

DSS-induced colitis [2] = assay: H&E staining of colon tissues in DSS-induced colitis model; assay type: in vivo, mice; settings: 5, 10 mg/kg
Procedure: H&E Staining of Colon tissues: After dissecting and transecting the colon, a feeding needle and 5 ml syringe were used to intubate and flush the colon with ice-cold PBS until the stool was flushed out. Scissors were used to incise longitudinally from distal to proximal end of the colon and the colon tissue could then be expanded as a flat sheet. The edge of the distal colon was grasped using a pair of forceps and the colon tissue was rotated into a swiss roll. The roll was firmly grasped and transected using a 27 G ½ needle. […] The Swiss roll was then paraffin-embedded, sectioned, mounted, and stained with H&E to determine the extent of damage to the colon from the distal (inside end) to the proximal (outside end).

JAK3 = JAK3 (Homo sapiens (Human), UniProt P52333); assay: Kinase-Glo Max JAK3 kinase assay (BPS Bioscience kit); assay type: biochemical; settings: purified enzyme, 0.01-10,000 nM
Chain of JAK3 (P52333 whole entry): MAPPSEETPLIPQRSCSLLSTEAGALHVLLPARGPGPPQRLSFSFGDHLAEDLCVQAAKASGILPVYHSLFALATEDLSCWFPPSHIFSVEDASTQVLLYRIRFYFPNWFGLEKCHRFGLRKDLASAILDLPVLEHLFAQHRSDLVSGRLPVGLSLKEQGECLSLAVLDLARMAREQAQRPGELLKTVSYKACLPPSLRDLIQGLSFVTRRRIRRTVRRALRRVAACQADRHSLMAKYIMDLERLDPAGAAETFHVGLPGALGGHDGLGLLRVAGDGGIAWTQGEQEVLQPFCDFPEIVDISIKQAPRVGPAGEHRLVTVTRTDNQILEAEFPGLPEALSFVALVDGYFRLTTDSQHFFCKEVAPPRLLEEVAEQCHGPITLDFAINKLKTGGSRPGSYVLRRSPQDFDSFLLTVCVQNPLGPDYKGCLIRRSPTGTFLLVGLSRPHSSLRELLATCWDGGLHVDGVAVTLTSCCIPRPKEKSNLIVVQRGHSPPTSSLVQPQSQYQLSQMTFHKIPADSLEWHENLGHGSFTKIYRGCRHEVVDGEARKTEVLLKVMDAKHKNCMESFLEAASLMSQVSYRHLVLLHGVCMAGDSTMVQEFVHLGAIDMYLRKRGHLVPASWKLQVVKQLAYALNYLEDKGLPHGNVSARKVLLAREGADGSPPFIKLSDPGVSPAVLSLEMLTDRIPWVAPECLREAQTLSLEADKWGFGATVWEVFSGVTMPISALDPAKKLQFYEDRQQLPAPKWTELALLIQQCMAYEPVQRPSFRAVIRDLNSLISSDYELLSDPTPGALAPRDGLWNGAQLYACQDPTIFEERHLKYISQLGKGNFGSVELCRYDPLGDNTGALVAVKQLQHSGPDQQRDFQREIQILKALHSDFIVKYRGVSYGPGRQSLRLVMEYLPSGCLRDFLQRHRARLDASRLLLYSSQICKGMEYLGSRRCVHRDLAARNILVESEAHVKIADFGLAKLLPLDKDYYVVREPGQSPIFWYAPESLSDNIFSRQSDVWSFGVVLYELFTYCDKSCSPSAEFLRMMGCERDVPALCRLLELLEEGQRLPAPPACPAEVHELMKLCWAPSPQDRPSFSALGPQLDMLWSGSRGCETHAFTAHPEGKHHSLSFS

JAK2 = JAK2 (Homo sapiens (Human), UniProt O60674); assay: Kinase-Glo Max JAK2 kinase assay (BPS Bioscience kit); assay type: biochemical; settings: purified enzyme, 0.01-10,000 nM
Chain of JAK2 (O60674 whole entry): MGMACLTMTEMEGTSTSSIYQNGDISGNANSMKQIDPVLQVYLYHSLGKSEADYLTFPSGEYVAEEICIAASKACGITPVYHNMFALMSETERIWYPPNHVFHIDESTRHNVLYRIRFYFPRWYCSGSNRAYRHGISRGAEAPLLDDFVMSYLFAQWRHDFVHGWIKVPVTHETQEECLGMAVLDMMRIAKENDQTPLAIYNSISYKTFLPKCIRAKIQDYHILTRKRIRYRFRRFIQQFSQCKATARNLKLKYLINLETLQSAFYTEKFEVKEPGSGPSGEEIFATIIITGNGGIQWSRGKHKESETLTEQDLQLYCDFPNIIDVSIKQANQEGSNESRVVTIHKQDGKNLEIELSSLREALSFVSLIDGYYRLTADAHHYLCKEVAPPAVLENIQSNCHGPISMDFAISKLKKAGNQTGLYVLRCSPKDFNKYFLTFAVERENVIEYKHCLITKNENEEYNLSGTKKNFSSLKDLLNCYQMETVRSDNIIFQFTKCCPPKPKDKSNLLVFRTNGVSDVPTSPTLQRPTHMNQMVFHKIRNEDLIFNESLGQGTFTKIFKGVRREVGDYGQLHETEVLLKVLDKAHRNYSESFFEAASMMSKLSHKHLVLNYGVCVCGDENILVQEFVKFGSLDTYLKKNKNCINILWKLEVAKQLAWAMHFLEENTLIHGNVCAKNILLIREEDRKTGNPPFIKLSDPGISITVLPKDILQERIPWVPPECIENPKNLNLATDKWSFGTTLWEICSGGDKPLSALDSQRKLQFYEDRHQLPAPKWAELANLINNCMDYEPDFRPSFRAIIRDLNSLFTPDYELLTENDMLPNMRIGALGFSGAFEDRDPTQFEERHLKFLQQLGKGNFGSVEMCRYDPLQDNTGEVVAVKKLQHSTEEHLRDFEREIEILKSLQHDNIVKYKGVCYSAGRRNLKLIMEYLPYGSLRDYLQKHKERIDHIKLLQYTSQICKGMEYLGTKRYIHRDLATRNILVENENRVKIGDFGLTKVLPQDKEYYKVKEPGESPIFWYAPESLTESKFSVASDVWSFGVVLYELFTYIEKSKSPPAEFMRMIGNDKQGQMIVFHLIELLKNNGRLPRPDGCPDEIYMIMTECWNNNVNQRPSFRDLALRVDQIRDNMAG

DSS-induced colitis [3] = assay: DSS-induced colitis in mice; assay type: in vivo, C57BL/6 female mice; settings: oral; for improvement of DAI score or disease severity (in words): 1 mg/kg; for mice that developed moderate colitis / mice that developed severe colitis / mice that developed severe colitis with gross bleeding: day 5, n=10
Procedure: In vivo efficacy of MMT3-72 in treatment of DSS-induced colitis in mice: C57BL/6 female mice 6-8 weeks purchased from Charles River Laboratories and were randomly divided into different treatment groups. Acute colitis was induced by administering 3% DSS (MP Biomedicals, CA, USA) in distilled water continuously for 5 days and the control group received pure water (Snider, et al., Methods Mol Biol 2016, 1438, 245-254). […] Drugs were administered every other day orally by gavage in volume of 0.1 mL/10 g body weight. During the model establishment, body weight, stool consistency and gross blood in feces were monitored and recorded daily. After 5 days, mice were sacrificed and blood was collected. Serum was obtained by centrifugation and stored at −80° C. for further immune assay. Colon was excised and the length was measured.
To evaluate the efficacy of MMT3-72 in the treatment of UC in vivo, a colitis model was established in mice using dextran sodium sulfate (DSS). DSS in drinking water could trigger colitis in mice. The DSS-induced colitis model is widely used because of its relatively easy administration and high similarity with human UC. In this study, mice treated with 3% DSS water developed symptoms of colitis such as bloody stools and diarrhea on day 5. Disease activity index (DAI) was monitored for the severeness of disease in mice: Normal stool consistency with negative hemoccult: score 0; Soft stools with positive hemoccult: score 1; Very soft stools with traces of blood: score 2; Watery stools with visible rectal bleeding: score 3. […]. […].

[4] = In-vivo metabolite identification in mouse plasma, colon and feces; settings: 6 h after oral 10 mg/kg MMT3-72
Procedure: Activation of MMT73-72 and Metabolite identification: In-vivo metabolite identification was conducted using mouse plasma, colon and feces samples that collected at 6 h after oral administration of MMT3-72 (10 mg/kg), Liquid chromatography tandem mass spectrometry was employed to separate and identify the possible metabolites. The LC-MS/MS method consisted of a Shimadzu LC-20AD HPLC system (Kyoto, Japan). Chromatographic separation of MMT3-72 and its metabolites was achieved using a Waters XBridage reverse phase C18 column (15 cm×2.1 mm I.D., packed with […]). A high resolution AB Sciex X500R QTOF mass spectrometer (AB Sciex, Farmingham, USA) in the positive-ion Information Dependent Acquisition (IDA) mode was used for confirmation of accurate molecular weight. The mass range was recorded from m/z 100 to 1000 Da. The collision energy was set to 50 V for TOF MSMS. Data was collected with software SCIEX OS, and then processed with software Metabolite Pilot 2.0 (AB Sciex, Farmingham, USA).

JAK1 = JAK1 (Homo sapiens (Human), UniProt P23458); assay: Kinase-Glo Max JAK1 kinase assay (BPS Bioscience kit); assay type: biochemical; settings: purified enzyme, 0.01-10,000 nM
Chain of JAK1 (P23458 whole entry): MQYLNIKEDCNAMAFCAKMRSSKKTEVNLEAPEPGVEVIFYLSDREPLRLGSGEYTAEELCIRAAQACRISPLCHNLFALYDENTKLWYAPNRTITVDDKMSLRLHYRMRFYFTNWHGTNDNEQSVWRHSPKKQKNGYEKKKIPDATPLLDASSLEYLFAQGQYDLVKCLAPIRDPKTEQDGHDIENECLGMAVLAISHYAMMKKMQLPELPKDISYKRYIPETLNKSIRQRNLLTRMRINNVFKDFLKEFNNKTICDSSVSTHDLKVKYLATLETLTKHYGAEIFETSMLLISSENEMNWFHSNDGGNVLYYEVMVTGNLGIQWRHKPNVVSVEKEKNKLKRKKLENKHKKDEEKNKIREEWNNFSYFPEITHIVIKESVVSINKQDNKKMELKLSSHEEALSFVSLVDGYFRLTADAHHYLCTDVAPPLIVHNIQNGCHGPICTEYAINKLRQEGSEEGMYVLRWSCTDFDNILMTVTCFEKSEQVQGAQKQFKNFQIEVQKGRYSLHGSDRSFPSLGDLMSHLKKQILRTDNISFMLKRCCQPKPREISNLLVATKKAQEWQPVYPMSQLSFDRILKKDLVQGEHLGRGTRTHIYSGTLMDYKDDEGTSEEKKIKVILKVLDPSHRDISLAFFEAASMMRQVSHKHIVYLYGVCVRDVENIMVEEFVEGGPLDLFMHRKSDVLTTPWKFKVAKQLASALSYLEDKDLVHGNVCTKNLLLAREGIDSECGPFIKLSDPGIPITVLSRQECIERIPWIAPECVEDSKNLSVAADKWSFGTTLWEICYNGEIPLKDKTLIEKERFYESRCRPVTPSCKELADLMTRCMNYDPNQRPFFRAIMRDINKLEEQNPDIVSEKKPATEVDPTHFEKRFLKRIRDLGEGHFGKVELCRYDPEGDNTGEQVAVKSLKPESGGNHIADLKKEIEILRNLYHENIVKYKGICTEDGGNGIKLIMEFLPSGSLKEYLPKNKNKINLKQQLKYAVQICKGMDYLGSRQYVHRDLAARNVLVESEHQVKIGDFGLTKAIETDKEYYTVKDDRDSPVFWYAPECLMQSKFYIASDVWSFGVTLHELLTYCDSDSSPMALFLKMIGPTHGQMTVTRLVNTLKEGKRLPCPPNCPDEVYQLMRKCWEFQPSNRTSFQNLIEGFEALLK
Procedure: as §2

[5] = Pharmacokinetics in mice after oral MMT3-72 (LC-MS/MS of plasma, GI tissues, GI content); assay type: in vivo, C57BL/6 female mice
Procedure: LC-MS analysis of MMT3-72and MMT3-72-M2 in biological samples: MMT3-72 and MMT3-72-M2 concentrations in plasma (ng/mil) and tissues (ng/g) were determined by the LC-MS/MS method that was developed and validated for this study. The HPLC method was conducted on a Shimadzu LC-20AD HPLC system (Kyoto, Japan), and chromatographic separation was achieved using a Waters XBridage reverse phase C18 column (5 cm×2.1 mm I.D., packed with 3.5 μm). The flow rate of gradient elution was 0.4 ml/min with mobile phase A (0.1% formic acid in purified deionized water) and mobile phase B (0.1% formic acid in acetonitrile). An AB Sciex QTrap 4500 mass spectrometer (AB Sciex, Framingham, USA) in the positive-ion multiple reaction monitoring (MRM) mode was used for detection. Protonated molecular ions and the respective ion products were monitored at the transitions of m/z 811.3>737.4 for MMT3-72 and 472.3>416.0 for the MMT3-72-M2. Data was processed with software Analyst (version 1.6).
Pharmacokinetics in mice. Briefly, C57BL/6 female mice were orally dosed with 10 mg/kg MMT3-72. At 0.5, 2, 4, 12, 24 h, mice were sacrificed, and blood samples were collected by drawing directly from the heart Intestinal tissue samples were collected and homogenized in PBS to 10% homogenate. The contents of small and large intestine were collected and homogenized in PBS. Afterwards, concentrations of MMT3-72, MMT3-72-M2,5-ASA in the plasma, intestinal tissues, and intestinal content were determined by liquid chromatography-tandem mass spectrometry (LC-MS/MS) analysis using method described above.

Compound: Cc1cnc(Nc2ccc(OCCN3CCCC3)cc2)nc1Nc1cccc(S(=O)(=O)NC(C)(C)C)c1 [Fedratinib]
- IC50 (HEL 92.1.7 cells; Homo sapiens, 72 h): 904 nM
- portion excreted in feces as unchanged drug [1]: 23%
- portion excreted to GI tract in feces [1]: 77%
- IC50 (SET-2 cells; Homo sapiens, 72 h): 210 nM

Compound: Cc1cnc(Nc2ccc(OCCOc3ccc(/N=N/c4ccc(C(=O)NCCC(=O)O)cc4)cc3C(=O)O)cc2)nc1Nc1cccc(S(=O)(=O)NC(C)(C)C)c1 [MMT3-72, (E)-2-(2-(4-((4-((3-(N-(tert-butyl)sulfamoyl)phenyl)amino)-5-methylpyrimidin-2-yl)amino)phenoxy)ethoxy)-5-((4-((2-carboxyethyl)carbamoyl)phenyl)diazenyl)benzoic acid]
- IC50 (TYK2): 2980 nM
- epithelial loss and immune cell infiltration in colon tissue (H&E) (DSS-induced colitis [2]): reduced epithelium disruption and infiltration of immune cells in colon tissues
- epithelial loss and immune cell infiltration in colon tissue (H&E) (DSS-induced colitis [2]; listed as MMT3972): reduced epithelial loss and decreased infiltration of immune cells
- IC50 (JAK3): 6820 nM
- IC50 (JAK2): 448 nM
- improvement of DAI score or disease severity (in words) (DSS-induced colitis [3]): did not improve DAI score or disease severity
- improvement of DAI score versus DSS induced colitis (DSS-induced colitis [3]; 5 mg/kg): 5 fold
- mice that developed moderate colitis (DSS-induced colitis [3]; 5 mg/kg): 10%
- mice that developed severe colitis (DSS-induced colitis [3]; 5 mg/kg): no mouse developed severe colitis
- improvement of DAI score in DSS-induced colitis model (DSS-induced colitis [3]; 10 mg/kg): 10 fold
- recovery of colon length from DSS-induced colitis (DSS-induced colitis [3]; 10 mg/kg): recovered the colon length
- mice that developed moderate colitis (DSS-induced colitis [3]; 10 mg/kg): no mice
- mice that developed severe colitis with gross bleeding (DSS-induced colitis [3]; 10 mg/kg): no mice
- detection in plasma, colon tissue and feces [4]: only detected in the feces with no detection in the plasma and the colon tissues
- IC50 (HEL 92.1.7 cells; Homo sapiens, 72 h): 5590 nM
- IC50 (JAK1): 199 nM
- IC50 (SET-2 cells; Homo sapiens, 72 h): 515 nM
- Cmax ([5]; female, C57BL/6, mouse, GI content (stomach, small intestine and colon content), oral 10 mg/kg MMT3-72, read-out: Cmax in GI content (stomach, small intestine and colon content)): > 50000 ng/g
- detection in small intestine tissues, colon tissue or systemic circulation ([5]; oral 10 mg/kg MMT3-72, 0-24 hrs): not detected

Compound: Cc1cnc(Nc2ccc(OCCO)cc2)nc1Nc1cccc(S(=O)(=O)NC(C)(C)C)c1 [MMT3-72-M2, N-(tert-butyl)-3-((2-((4-(2-hydroxyethoxy)phenyl)amino)-5-methylpyrimidin-4-yl)amino)benzenesulfonamide]
- IC50 (TYK2): 55.2 nM
- IC50 (JAK3): 701 nM
- IC50 (JAK2): 16.3 nM
- detection in plasma, colon tissue and feces [4]: only detected in the colon tissues and the feces with low level in the plasma
- IC50 (HEL 92.1.7 cells; Homo sapiens, 72 h): 2590 nM
- IC50 (JAK1): 2 nM
- IC50 (SET-2 cells; Homo sapiens, 72 h): 332 nM
- Cmax ([5]; female, C57BL/6, mouse, colon tissue and small intestinal tissues, oral 10 mg/kg MMT3-72, read-out: Cmax in colon tissue and small intestinal tissues): > 1500 ng/g
- Cmax ([5]; female, C57BL/6, mouse, plasma, oral 10 mg/kg MMT3-72, read-out: Cmax in plasma): 8 ng/mL
- concentration at 24 h ([5]; female, C57BL/6, mouse, small and large intestine tissues, oral 10 mg/kg MMT3-72, at 24 hrs, read-out: Cmin in small and large intestine tissues): 88.5 ng/mL
- concentration in colon content relative to small intestine content ([5]; oral 10 mg/kg MMT3-72): 10 fold
- time after which undetectable in plasma ([5]; oral 10 mg/kg MMT3-72): 4 h

Compound: COCCOCc1cc(Nc2ncc(C)c(Nc3cccc(S(=O)(=O)NC(C)(C)C)c3)n2)ccc1OCCN1CCCC1 [MMT3-83]
- IC50 (HEL 92.1.7 cells): 2040 nM
- IC50 (SET-2 cells): 645 nM

Compound: N#CC[C@H](C1CCCC1)n1cc(-c2ncnc3[nH]ccc23)cn1 [Ruxolitinib]
- IC50 (HEL 92.1.7 cells; Homo sapiens, 72 h): 114 nM
- IC50 (SET-2 cells; Homo sapiens, 72 h): ~145 nM

Compound: C[C@@H]1CCN(C(=O)CC#N)C[C@@H]1N(C)c1ncnc2[nH]ccc12 [Tofacitinib, reference compound]
- improvement of DAI score or disease severity (in words) (DSS-induced colitis [3]): did not improve DAI score or disease severity
- improvement of DAI score (in words) (DSS-induced colitis [3]; 5 mg/kg): did not show any improvement of DAI score
- mice that developed moderate colitis (DSS-induced colitis [3]; 5 mg/kg): 80%
- mice that developed severe colitis (DSS-induced colitis [3]; 5 mg/kg): 40%
- improvement of DAI score (in words) (DSS-induced colitis [3]; 10 mg/kg): showed improvement of DAI score
- recovery of colon length from DSS-induced colitis (DSS-induced colitis [3]; 10 mg/kg): recovered the colon length
- mice that developed moderate colitis (DSS-induced colitis [3]; 10 mg/kg): 20%
- mice that developed severe colitis with gross bleeding (DSS-induced colitis [3]; 10 mg/kg): 10%

Compound: CC[C@@H]1CN(C(=O)NCC(F)(F)F)C[C@@H]1c1cnc2cnc3[nH]ccc3n12 [Upadacitinib]
- IC50 (HEL 92.1.7 cells; Homo sapiens, 72 h): 1010 nM
- IC50 (SET-2 cells; Homo sapiens, 72 h): 69.6 nM

Compound: Deucravacitinib
- IC50 (HEL 92.1.7 cells): ~347000 nM
- IC50 (SET-2 cells): 7380 nM
